Measurements reported in patent US11406631B2, “Hydrazone derivatives for preventing or treating EBV-related cancers” (Universite de Bretagne Occidentale, priority 2018, dated 2022).

Assays:
[1] = system: interaction between NCL and the G4s of EBNA1 mRNA; assay: Proximity ligation assay (PLA) in H1299 cells transfected with EBNA1 plasmids; assay type: cell-based; conditions: 5 μM
From the text: (§1) Stars indicate significant results (the higher the number of stars, the more significant).

[2] = system: EBNA1 expression in EBV-infected cells; assay: Western blot of endogenous EBNA1 in EBV-infected cell lines (B95.8, Mutu-1, Raji); assay type: cell-based; conditions: GAr-dependent; 2a in B95.8, Mutu-1 and Raji, 11a in Raji
Protocol: Therefore, compound 2a interferes with the GAr-based inhibition of protein expression. Interference with EBNA1 expression in EBV-infected cells was assessed in different cell lines. The principle of these experiments is the same than the one described in the paragraph just above except that the steady state level of endogenous EBNA1 is determined in these EBV-infected cell lines.
B95.8 cells are derived from cotton-top Tamarin Monkey peripheral blood lymphocyte EBV-positif. Mutu-1 cells are derived from an EBV-positive Burkitt's lymphoma biopsy specimen from a patient. Raji cells are EBV-positive type III latency Burkitt's lymphoma.
Compounds 2a and 11a increase in a GAr-dependent manner EBNA1 expression in EBV-infected cells.

G4-RNA EBNA1 = assay: HT-G4-FID assay: Thiazole Orange displacement from G4-RNA; assay type: binding, Epstein-Barr virus; conditions: for DC50: K+-100 buffer, pH 7.3, triplicate assays; for affinity for the G-quadruplex structure of EBNA1 (in words, FID data): conclusion from Table 1
Protocol: This assay is based on the displacement of a fluorescent indicator (Thiazole Orange, hereinafter TO) from a G4-RNA structure (RNA G-quadruplex of EBNA1) by a putative ligand such as the compounds of the invention (see FIG. 1). This displacement is quantified as % TO displacement. The percentage of TO displacement is calculated from the fluorescence intensity (F) in the presence of a putative ligand, using:
[formula] where F0 is fluorescence intensity of the probe (TO) bound to RNA without added ligand. The percentage of displacement is then plotted as a function of the concentration of added ligand. The RNA affinity of putative ligands is evaluated using the concentration of a ligand required to decrease the fluorescence of the probe by 50% (noted DC50), which is determined graphically from non-linear fitting of the displacement curve. […] 2. Materials and Reagents
Thiazole Orange (TO) and cacodylic acid were purchased from Aldrich and used without further purification. The oligoribonucleotide EBNA1 [5′-r(GGGGCAGGAGCAGGAGGA)-3′] (SEQ ID no 1) purified by reversed-phase HPLC was purchased from Eurogentec.
Stock solutions of the ligands (2 mM in DMSO (dimethylsulfoxyde)) were used for G4-FID assay, unless otherwise stated, and were stored at −20° C. Stock solutions of TO (2 mM in DMSO) were used for G4-FID assay. Fluorescent probe powders and solutions were stored and used, protected from light and used as aliquots to avoid freeze-thaw cycles. HT-G4-FID measurements were performed on a FLUOstar Omega microplate reader (BMG Labtech) with 96-well Non-Binding Surface black with black bottom polystyrene microplates (Corning ref 3650).
For HT-G4-FID assay, the oligonucleotide was dissolved in K^+−100-buffer (10 mM lithium cacodylate, pH 7.3, 100 mM KCl, 1 mM EDTA, 1% DMSO). Oligonucleotide concentrations were determined on the basis of their absorbance at 260 nm. Prior to use, the oligonucleotide was pre-treated by heating at 95° C. for 5 min followed by a slow cooling to 25° C.
Each G4-FID assay is performed in a 96-well microplates. […] The microplate is filled with (a) K^+−100 solution (qs for 200 μL) (b) 10 μL of a solution of pre-folded oligonucleotides (5 μM) and TO (10 μM-2 eq) and (c) an extemporaneously prepared 5 μM ligand solution in K^+−100 buffer (0 to 100 μL along the line of the microplate, i.e., from column […]: 0, 0.125, 0.25, 0.375, 0.5, 0.625, 0.75, 1.0, 1.25, 1.5, 2.0 and 2.5 μM) (see Largy et al., Anal Bioanal Chem 2011, 400, 34193427). After 5 min of orbital shaking at 500 rpm, fluorescence intensity is measured using the following experimental parameters: positioning delay: 0.5 s, 20 flashes per well, emission/excitation filters (nm): 485/520, gain adjusted at 80% of the fluorescence from the most fluorescent well (i.e., a well from column A).
Results are shown in Table 1 below (lower DC50 values indicate higher affinity of compounds to the G4-RNA structure of EBNA1).

Mutu-1 cells = assay: Cell viability (MTT assay); assay type: cell-based; parameters: dose or concentration left out as unconfirmed; conditions: concentration range where they increase EBNA1 expression; preliminary results
Protocol: as §1
Toxicity of various concentration of G4 ligands on Mutu-1 cells was assessed using the classical MTT assay. The results obtained with various concentrations of compounds 2a and 11a were compared to the result obtained with cells treated by DMSO (compound vehicle).

[3] = system: GAr-based inhibition of protein expression; assay: SDS-PAGE and western blot of 235GAr-OVA and OVA in transfected H1299 cells; assay type: cell-based
From the text: The aim of these experiments is to assess the effect of the inventive compounds on the GAr-based inhibition of protein expression. For this purpose, H1299 cells were transfected by plasmids allowing expression of either EBNA1 or, as a control EBNA1ΔGAr and then treated, or not by various concentrations of the indicated compounds. […] Compounds able to interfere with GAr-based inhibition of translation will increase the steady state level of EBNA1, whereas a having no effect on EBNA1ΔGAr.
The ratio of the quantity of OVA or GAr-OVA relatively to GAPDH (the loading control) are indicated below the gel.

SMILES	number of PLA dots and their intensity [1]	number of nuclear PLA dots per cell [1]	EBNA1 expression in EBV-infected cells [2]	DC50 (G4-RNA EBNA1) [nM]	affinity for the G-quadruplex structure of EBNA1 (in words, FID data) (G4-RNA EBNA1)	toxicity on Mutu-1 cells (Mutu-1 cells)	OVA expression ([3]; control without GAr)	steady-state level of 235GAr-OVA ([3]; dose-dependent, relative to GAPDH)
C[n+]1ccc(C=NNC(=O)c2cccc(C(=O)NN=Cc3cc[n+](C)c4ccccc34)n2)c2ccccc21.[I-].[I-] [Compound 2a, N′^2, N′^6-Bis[(1-methylquinolinium-4-yl)methylene]pyridine-2,6-dicarbohydrazide iodide]	significantly reduce	significantly reduced	increase	260 ± 50	particularly high affinity	not significantly toxic	no significant effect	significant increase
C[n+]1ccc(C=NNC(=O)c2ccc3ccc4ccc(C(=O)NN=Cc5cc[n+](C)c6ccccc56)nc4c3n2)c2ccccc21.[I-].[I-] [Compound 11a, N′^2,N′^9-Bis[(1-methylquinolinium-4-yl)methylene]-1,10-phenanthroline-2,9-dicarbohydrazide iodide]	significantly reduce	significantly reduced	increase	300 ± 30	particularly high affinity	not significantly toxic		
